This assay relates to TBK1. The experiment in a line: Immunoblot of TBK1 phosphorylation in HCT116 cells (p53 wild-type or p53-/-). It is filed as cell-based. The protocol: Cell Culture. The MCF-7 human breast carcinoma cell line and HCT116 p53 wild-type and HCT116 p53−/− cell lines were obtained from ATCC. […]
Immunoblotting. […] One hour after IR, cells were lysed in RIPA buffer ([…], pH 8.0, 150 mM NaCl, 0.1% SDS, 0.5% sodium deoxycholate, 1% IGEPAL® CA-630 (Sigma, 18896) for 20 min at 4° C. in the presence of protease and phosphatase inhibitor cocktails (Roche, #04693159001 & #04906837001). Cell lysates were centrifuged at 13,200 g for 10 min at 4° C. and supernatants were analyzed for protein content using BCA assay (Pierce™ BCA Protein Assay Kit, cat #23227, ThermoFisher Waltham, Mass. 02451) and equal amounts of protein/lane were used for subsequent immunoblot analyses. Proteins were denatured by adding NuPAGE LSD Sample Buffer [4×] […]
In general terms: Immunoblotting shows a protein as a band on a membrane.

The structures appear in SMILES notation.

In the case of `CC(C)NCCOc1ncc(-c2cc3c4c(cnc3cc2F)N(C)C(=O)C42CCC2)cc1NS(C)(=O)=O` [Compound 569, N-(5-(7′-Fluoro-3′-methyl-2′-oxo-2′,3′-dihydrospiro[cyclobutane-1,1′-pyrrolo[2,3-c]quinolin]-8′-yl)-2-(2-(isopropylamino)ethoxy)pyridin-3-yl)methanesulfonamide], the “induction of phosphorylation (activation) of TBK1” value (HCT116 p53 wild-type or p53-/- cells, 569 1 μM, ATMi + DNA-PKi 0.5 or 1 micromolar each, 0 or 10 Gy) is on record as “more potent activator of TBK1 phosphorylation than either of the single target kinase inhibitors”. Moreover, under “HCT116 p53 wild-type vs p53-negative cells, 1 μM”, the “dependence of TBK1 activation on p53 status” value is “independent of p53 status”.

The record behind these values is patent US20220142995A1, “DUAL ATM AND DNA-PK INHIBITORS FOR USE IN ANTI-TUMOR THERAPY” (XRAD Therapeutics, Inc., priority 2019, published 2022).
